Test results taken from publication PMC10574185, “Encapsulation and Biological Activity of Hesperetin Derivatives with HP-β-CD” (Molecules, 2023).
In brackets after ≈: the same amount, converted by molar mass. Several values for one entry are separate records, joined by “and”; a condition that tells them apart may be missing. Identical values can stand only once. Like-named read-outs stand apart in the source and are kept apart here.

Columns and labels:
[1] = tested on: Escherichia coli ATCC 35218; test: Minimal inhibition concentration (dilution + diffusion-well); format: cell-based; conditions: ATCC35218, 37 °C, 18 h
Summary of the method: (§1)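 Agar diffusion-well format on Mueller–Hinton agar, 8 mm wells loaded with two-fold compound dilutions prepared from 500 to 62.5 µM in 5% DMSO. Plates incubated 18 h at 37 °C; MIC taken as first concentration showing growth inhibition.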

[2] = DPPH assay (antioxidant activity); conditions: concentration 0.1 mg/mL, mean ± SD
Method: To evaluate the antioxidant ability of the tested systems, antioxidant analysis was performed. Antioxidants can scavenge hydroxyl radicals in two ways: by reacting directly with hydroxyl radicals (DPPH^•, ABTS^•+) or indirectly inhibiting the formation of hydroxyl radicals by chelating metal ions involved in the production of hydroxyl radicals. The antioxidant activity of the systems studied was investigated by using DPPH^• scavenging, ABTS^•+ scavenging ability, and Fe^2+-chelating ability. In this study, the antioxidant activity of pure hesperetin and its Schiff bases (HHSB, HIN, and HTSC) and HP-β-CD complexes were compared, and the positive control was Trolox.
The detailed methodology of DPPH assay was described in the previous paper by Sykuła et al..

[3] = tested on: Listeria monocytogenes ATCC 19111; test: Antagonistic activity, diffusion-well method; format: cell-based; conditions: ATCC19111, compounds at 2.5 µM, wells 8 mm, 37 °C, 18 h
Method: (§2) The antimicrobial activity of the HESP, ligands ([…], and HTSC), and complexes with HP-β-CD were tested against Gram-positive bacteria (Listeria monocytogenes ATCC 19111, Listeria monocytogenes ATCC 19112, Listeria monocytogenes ATCC 19115, Staphylococcus aureus ATCC 29737, Staphylococcus aureus ATCC 25923, Staphylococcus aureus ATCC 27734) and Gram-negative bacteria (Escherichia coli ATCC 11303, Escherichia coli ATCC 35218, Salmonella Typhimurium, ATCC 14028, Salmonella Enteritidis ATCC 13076, Salmonella Choleraesuis ATCC 7001). The strains were activated from cryobanks by passaging them twice onto a Nutrient Broth (Merck, Darmstadt, Germany). All bacteria were grown for 24 h at 37 °C. Antagonistic activity of the following chemical compounds: […], and […] determined by the diffusion-well method. The test strains were plated on Mueller-Hinton Agar (Merck, Darmstadt, Germany) in the form of a surface layer of bacteria according to the procedures recommended by the European Committee on Antimicrobial Susceptibility Testing EUCAST [74]. The detailed methodology was described in the paper by Sykuła et al.. Bacterial inoculum was prepared from an overnight solid culture. The inoculum density was 1-2 × 10^8 CFU/mL, which corresponds to a McFarland standard of 0.5. The samples of the test compounds were dissolved in 5% (w/w) DMSO to obtain a concentration of 500 μM, and were sterilized using filtration (filter pore width 0.2 μm; (Sartorius AG, Gottingen, Germany). The bacteria inoculum test culture (0.1 mL) smear conducted was on sterile Mueller-Hinton Agar (Merck, Darmstadt, Germany) plates. […] A total of 50 μL of the prepared solutions of the tested compounds at a concentration of 500 μM were added to the wells. The plates prepared in this way were incubated at 37 °C for 18 h. After this time, zones of growth inhibition were read and the result was given in mm. The experiment was carried out in two independent repetitions. The results were expressed in average values and standard deviation. The results were analyzed using a one-way ANOVA and post-hoc Tukey's test.

[4] = tested on: Listeria monocytogenes ATCC 19112; test: Antagonistic activity, diffusion-well method; format: cell-based; conditions: ATCC19112, compounds at 2.5 µM, wells 8 mm, 37 °C, 18 h
Method: as §2

[5] = tested on: Staphylococcus aureus ATCC 27734; test: Antagonistic activity, diffusion-well method; format: cell-based; conditions: ATCC27734, compounds at 2.5 µM, wells 8 mm, 37 °C, 18 h
Method: as §2

[6] = tested on: Salmonella Typhimurium ATCC 14028; test: Antagonistic activity, diffusion-well method; format: cell-based; conditions: Salmonella enterica, compounds at 2.5 µM, wells 8 mm, 37 °C, 18 h
Method: as §2

[7] = tested on: Salmonella Choleraesuis ATCC 7001; test: Antagonistic activity, diffusion-well method; format: cell-based; conditions: Salmonella enterica, compounds at 2.5 µM, wells 8 mm, 37 °C, 18 h
Method: as §2

[8] = tested on: Salmonella Enteritidis ATCC 13076; test: Antagonistic activity, diffusion-well method; format: cell-based; conditions: Salmonella enterica, compounds at 2.5 µM, wells 8 mm, 37 °C, 18 h
Method: as §2

[9] = tested on: Listeria monocytogenes ATCC 19115; test: Antagonistic activity, diffusion-well method; format: cell-based; conditions: ATCC19115, compounds at 2.5 µM, wells 8 mm, 37 °C, 18 h
Method: as §2

HaCaT cells = test: MTT cytotoxicity assay on HaCaT keratinocytes; format: cell-based, human; conditions: for IC50: Homo sapiens
Method: HaCaT keratinocyte cells were exposed to chemical compounds at nine different concentrations (from 3.9 to 995.6 µg/mL) in four replicates of each concentration for 24 and 48 h.
All compounds were dissolved in sterile DMSO (Merck Life Science, Warsaw, Poland) and were sterile-filtered with 0.22 µm pore size sterile disposable syringe filters.
HaCaT cell line (the normal immortalised human keratinocytes) used in the study derived from the 35th passage (the original material created by Prof. Dr. Petra Boukamp and Dr. Norbert Fusenig) was purchased from Cell Line Service GmbH (Eppelheim, Germany). The cells were cultured and propagated as described previously.
The cytotoxicity was assessed with MTT assay according to methodology applied previously.
The following final concentrations (in four replicates per experiment) of the test compounds were tested (µg/mL): 3.9; 7.8; 15.6; 31.1; 62.2; 124.5; 248.9; 497.8, and 995.6. […] Three independent experiments were conducted. The vehicle was cells in the culture medium. The assay was conducted for 24 h and 48 h.

[10] = tested on: Escherichia coli ATCC 11303; test: Minimal inhibition concentration (dilution + diffusion-well); format: cell-based; conditions: ATCC11303, 37 °C, 18 h
Summary of the method: as §1

[11] = tested on: Staphylococcus aureus ATCC 29737; test: as above; format: cell-based; conditions: ATCC29737, 37 °C, 18 h
Summary of the method: as §1

Pseudomonas aeruginosa = tested on: Pseudomonas aeruginosa; set-up: method as in PMID 36009336; conditions: cited from earlier work
[12] = MTT, 24 h exposure, read-out: IC50 After 24 h
[13] = MTT, 48 h exposure, read-out: IC50 After 48 h

| Structure (SMILES) | MIC [1] | DPPH antioxidant activity [2] | zone of inhibition at 2.5 µM [3] | zone of inhibition at 2.5 µM [4] | zone of inhibition at 2.5 µM [5] | zone of inhibition at 2.5 µM [6] | zone of inhibition at 2.5 µM [7] | zone of inhibition at 2.5 µM [8] | zone of inhibition at 2.5 µM [9] | cytotoxicity at the lowest concentration tested (HaCaT cells; 48 h, 3.9 µg/mL) | cytotoxicity at the highest concentration tested (HaCaT cells; 48 h, 995.6 µg/mL) | IC50 (HaCaT cells; [12]) | IC70 after 48 h (HaCaT cells; MTT, 48 h exposure, IC50 impossible to count) | MIC [10] | Non-cytotoxic concentration (IC0) (HaCaT cells; 24 h exposure) | Non-cytotoxic concentration (IC0) (HaCaT cells; 48 h exposure) | IC50 (HaCaT cells; [13]) | MIC [11] | MIC (Pseudomonas aeruginosa) |
| --- | --- | --- | --- | --- | --- | --- | --- | --- | --- | --- | --- | --- | --- | --- | --- | --- | --- | --- | --- |
| COc1ccc(C2C/C(=N\NC(=O)c3ccccc3)c3c(O)cc(O)cc3O2)cc1O (racemic) [HHSB] | 2.5 µM | 44.29 ± 4.5% | 0 mm | 0 mm | 0 mm | 0 mm | 0 mm | 0 mm | 0 mm | 54.8% ± 5.4 | 79.1% ± 6.6 | 418 µg/mL (≈ 993 µM) | 163.5 µg/mL and 163.5 ^b µg/mL |  |  |  |  |  |  |
| COc1ccc(C2C/C(=N\NC(=O)c3ccncc3)c3c(O)cc(O)cc3O2)cc1O (racemic) [HIN] |  | 34.62 ± 3.8% | 0 mm | 0 mm | 0 mm | 0 mm | 0 mm | 0 mm | 0 mm |  |  | 350 µg/mL (≈ 831 µM) |  | 2.5 µM | ≤ 7.8 µg/mL | ≤ 15.6 µg/mL | 59.7 µg/mL (≈ 142 µM) |  |  |
| COc1ccc(C2CC(=NNC(N)=S)c3c(O)cc(O)cc3O2)cc1O (centres unmarked) [HTSC, N-[2,3-dihydro-5,7-dihydroxy-2-(3-hydroxy-4-methoxyphenyl)chromen-4-ylidene]thiosemicarbazide] |  | 93.72 ± 6.8% | 0 mm | 0 mm | 0 mm | 0 mm | 0 mm | 0 mm | 0 mm |  |  |  |  |  |  | ≤ 3.9 µg/mL | 11.9 µg/mL (≈ 31.7 µM) | 2.5 µM |  |
| COc1ccc(C2CC(=O)c3c(O)cc(O)cc3O2)cc1O (centres unmarked) [Hesperetin, 3′,5,7-Trihydroxy-4′-methoxyflavanone] |  | 38.08 ± 2.7% | 0 mm | 0 mm | 0 mm | 0 mm | 0 mm | 0 mm | 0 mm |  |  | 221 µg/mL (≈ 731 µM) |  | 2.5 µM |  | ≤ 3.9 µg/mL | 150 µg/mL (≈ 496 µM) |  | 500 µg/mL (≈ 1650 µM) |
